Here are results for two molecules from patent US20210163412A1, “NOVEL SULFONEUREA COMPOUNDS” (Inflazome Limited, priority 2018, published 2021).

Test [1] has as its target T1, NLRP3 (Homo sapiens, UniProt Q96P20). Description: THP-1 cells pyroptosis assay. The class given is cell-based. Details: Seed THP-1 cells (25,000 cells/well) containing 1.0 μg/ml LPS; host or cells: THP-1 cells. The note with it: LPS 1 μg/ml, nigericin 5 μM, resazurin readout. As to the method:
The cells were routinely passaged and grown to confluency (˜10^6 cells/ml). On the day of the experiment, THP-1 cells were harvested and resuspended into RPMI medium (without FBS). The cells were then counted and viability (>90%) checked by Trypan blue (Sigma #T8154). […] To this diluted cell solution was added LPS (Sigma #L4524) to give a 1 μg/ml Final Assay Concentration (FAC). 40 μl of the final preparation was aliquoted into each well of a 96-well plate. The plate thus prepared was used for compound screening.
The following method step-by-step assay was followed for compound screening. • 1. […] Incubate for 3 hrs at 37° C., 5% CO2 • 4. Add 5 μl nigericin (Sigma #N7143) (FAC 5 μM) to all wells • 5. Incubate for 1 hr at 37° C., 5% CO2 • 6. At the end of the incubation period, spin plates at 300×g for 3 mins and remove supernatant • 7. Then add 50 μl of resazurin (Sigma #R7017) (FAC 100 μM resazurin in RPMI medium without FBS) and incubate plates for a further 1-2 hrs at 37° C. and 5% CO2 • 8. […] IC50 data is fitted to a non-linear regression equation (log inhibitor vs response-variable slope 4-parameters)

Test [2] addresses T1, NLRP3. Description: Human whole blood IL-1β release assay. The class given is cell-based. The note with it: LPS 1 μg/ml, nigericin, IL-1β in supernatant (AlphaLisa), read-out: HWB IC50. Details: Human whole blood in Li-heparin tubes was obtained from healthy donors; from tissue; host or cells: human whole blood from healthy donors. As to the method: For systemic delivery, the ability to inhibit NLRP3 when the compounds are present within the bloodstream is of great importance. For this reason, the NLRP3 inhibitory activity of a number of compounds in human whole blood was investigated in accordance with the following protocol.
Human whole blood in Li-heparin tubes was obtained from healthy donors from a volunteer donor panel. • 1. […] Incubate for 3 hrs at 37° C., 5% CO2 • 4. Add 1 μl nigericin (Sigma #N7143) ([…]) to all wells • 5. Incubate for 1 hr at 37° C., 5% CO2 • 6. At the end of the incubation period, spin plates at 300×g for 5 mins to pellet cells and remove 20 μl of supernatant and add to 96-well v-bottom plates for IL-1β analysis (note: these plates containing the supernatants can be stored at −80° C. to be analysed at a later date) • 7. IL-1β was measured according to the manufacturer protocol (Perkin Elmer-AlphaLisa IL-1 Kit AL220F-5000) • 8. IC50 data is fitted to a non-linear regression equation (log inhibitor vs response-variable slope 4-parameters)

T1 sequence (Q96P20 whole entry): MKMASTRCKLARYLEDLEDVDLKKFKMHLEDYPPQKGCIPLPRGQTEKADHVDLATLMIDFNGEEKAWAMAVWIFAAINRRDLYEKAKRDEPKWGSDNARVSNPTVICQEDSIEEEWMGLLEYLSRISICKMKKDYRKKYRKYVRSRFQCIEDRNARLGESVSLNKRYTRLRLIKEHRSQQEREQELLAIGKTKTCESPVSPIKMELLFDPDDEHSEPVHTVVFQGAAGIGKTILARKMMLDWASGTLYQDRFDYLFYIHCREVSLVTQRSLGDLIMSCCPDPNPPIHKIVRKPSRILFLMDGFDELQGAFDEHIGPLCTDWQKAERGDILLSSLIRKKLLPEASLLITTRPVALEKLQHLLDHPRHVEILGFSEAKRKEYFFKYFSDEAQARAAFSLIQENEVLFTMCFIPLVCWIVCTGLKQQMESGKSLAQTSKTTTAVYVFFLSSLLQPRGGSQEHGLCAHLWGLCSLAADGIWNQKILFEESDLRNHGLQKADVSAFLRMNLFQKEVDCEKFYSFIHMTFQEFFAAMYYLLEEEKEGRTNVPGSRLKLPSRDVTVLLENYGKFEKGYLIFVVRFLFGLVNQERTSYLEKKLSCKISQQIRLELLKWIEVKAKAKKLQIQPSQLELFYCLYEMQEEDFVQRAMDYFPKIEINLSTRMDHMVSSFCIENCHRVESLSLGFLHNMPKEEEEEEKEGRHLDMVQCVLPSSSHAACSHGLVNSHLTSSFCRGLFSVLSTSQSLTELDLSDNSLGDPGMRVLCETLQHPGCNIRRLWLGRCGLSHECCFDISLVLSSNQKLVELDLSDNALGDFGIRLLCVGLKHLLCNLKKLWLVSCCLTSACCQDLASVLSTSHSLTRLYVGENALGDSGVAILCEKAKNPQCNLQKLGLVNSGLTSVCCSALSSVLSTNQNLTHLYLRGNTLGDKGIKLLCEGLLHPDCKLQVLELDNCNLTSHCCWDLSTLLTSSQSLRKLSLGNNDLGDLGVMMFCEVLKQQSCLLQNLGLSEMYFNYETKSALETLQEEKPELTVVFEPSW

With `CC(C)c1cc(F)cc(-c2ccnc(OC3CCN(C)CC3)c2)c1NC(=O)NS(C)(=O)=O` [Example 43], the IC50 on NLRP3 [1] is 500 to 1000 nM; at NLRP3 [2], no more than 250 nM.

On to `CN1CCC(Oc2cc(-c3cc(F)cc(C4CCCC4)c3NC(=O)NS(C)(=O)=O)ccn2)CC1` [Example 41], for which the IC50 was no more than 250 nM on NLRP3 [1] and 1000 to 2000 nM at NLRP3 [2].
